Measured values: patent US20210332001A1, “SYNTHESIS AND ANTI-TUMOR ACTIVITIES OF ACYL-PARA-AMINOPHENOL DERIVATIVES” (Montefiore Medical Center, priority 2018, published 2021)

Columns and labels:
[1] = system: malignant astrocytes; details: cell culture method, Casper et al. (6); cited from earlier work
[2] = system: T-cell lymphoma cells line (Jurkat cells); assay: Jurkat T-cell lymphoma cell survival (presto blue), 48 hours post treatment; format: cell-based
Description: FIG. 2. The compounds were tested against T-cell lymphoma cells line (Jurkat cells) obtained from ATCC and were tested against APAP and its derivatives at various concentrations with 0.2% DMSO as a vehicle. Free flowing cells were seeded at 3500 cells and allowed 48 hours to stabilize before treatment. Drugs were administered to both seeded wells and wells that that were designated blank, without cells. This additional step was added in order to account for the effects of the drugs on the reagent used for analysis. Data for cell survival, using presto blue, was analyzed at 48 hours post treatment.
The effects of the drugs on lymphoma cells were tested on Jurkat cells, as described above and in FIG. 2.

[3] = system: U87MG cells, stage IV astrocytoma; assay: U87MG cell survival (presto blue), 48 hours post treatment; format: cell-based
Description: FIG. 1. U87MG cells, stage IV astrocytoma obtained from ATCC, were tested against APAP and its derivatives at various concentrations with 0.2% DMSO as a vehicle. Cells were seeded at 3500 cells and allowed 48 hours to stabilize before treatment. Drugs were administered and data for cell survival, using presto blue, were analyzed at 48 hours post treatment.
U87MG cells, stage IV astrocytoma obtained from ATCC, were tested against APAP and its derivatives at various concentration with 0.2% DMSO as a vehicle (FIG. 1). Cells were seeded at 3500 cells and allowed 48 hours to stabilize before treatment. Drugs were administered and data for cell survival, using presto blue, were analyzed at 48 hours post treatment.

[4] = system: differentiated neuronal cell line HCN-2; assay: Toxicity on differentiated neuronal cell line HCN-2; format: cell-based, human; details: HCN-2 differentiated 12 days; for reduction (non-significant): highest soluble concentration, not a significant reduction
Description: FIG. 3. The compounds were tested on a differentiated neuronal cell line (9) HCN-2, obtained from ATCC. Cells were seeded at 5,000 cells per well using a low passage, second passage of cells to ensure cell stability. Cells were then subjected to induced differentiation, at 72 hours, with a differentiating concoction composed of 25 ng/mL NGF-beta-human, 0.05 mM dibutyryl cAMP and 0.5 mM IBMX in 10% DMEM, all differentiating factors were obtained from Sigma Aldrich (9). Cells were treated with differentiating factor for 12 days to ensure that cells differentiated into neuronal cells. On the twelfth day, cells were treated with and without drugs at the highest soluble concentration to determine the activity of the compounds on neuronal cells.
The compounds were also tested on a differentiated neuronal cell line, HCN-2, obtained from ATCC (FIG. 3).

In the case of `CC(=O)Nc1ccc(O)cc1` [APAP, N-(4-Hydroxyphenyl)acetamide, reference compound], the “ability to reduce the growth of malignant astrocytes” value [1] is given as “only mild”, the “reduction in cell growth as compared to control 0.2% DMSO” value ([2]; 2 mM) is given as 16% and the “reduction in cell growth as compared to control 0.2% DMSO” value ([3]; 2 mM) is given as 36%.

Work on `CC(C)C(=O)Nc1ccc(O)cc1` [PL4, N-(4-hydroxyphenyl)-2-methylpropanamide] yielded a melting point of 160 to 162 °C.

Work on `O=C(Nc1ccc(O)cc1)c1ccccc1` [PL5B, N-(4-hydroxyphenyl)benzamide] yielded a melting point of 217 to 218 °C.

Molecule `CCCCCC(=O)Nc1ccc(O)cc1` [PL6, N-(4-hydroxyphenyl)hexanamide] has a melting point of 110 °C.

With `CCCCCCC(=O)Nc1ccc(O)cc1` [PL7, N-(4-hydroxyphenyl)heptanamide] the “toxicity on neuronal cells” value ([4]; highest concentration 0.5 mM) was “toxicity”, the melting point was 109 °C and the “activity (cell survival) in words” value ([3]; 0.5 mM) was “greatest activity”.

In the case of `CCCCCCCC(=O)Nc1ccc(O)cc1` [PL8, N-(4-hydroxyphenyl)octanamide], the “toxicity on neuronal cells” value ([4]; highest concentration 0.5 mM) is reported as “toxicity”, the melting point is reported as 120 °C and the “activity (cell survival) in words” value ([3]; 0.25 mM) is reported as “greatest activity”.

In the case of `CCCCCCCCC(=O)Nc1ccc(O)cc1` [PL9, N-(4-hydroxyphenyl)nonanamide], the “toxicity on neuronal cells” value ([4]; highest concentration 0.25 mM) is reported as “toxicity” and the melting point is reported as 119 °C.

With `CCCCCCCCCC(=O)Nc1ccc(O)cc1` [PL10, N-(4-hydroxyphenyl)decanamide] the “reduction (non-significant)” value [4] was 35.6%, the melting point was 124 °C and the “activity when compared to APAP” value ([2]; 0.125 mM) was “greatest activity”.

With `O=C(Nc1ccc(O)cc1)c1ccc2ccccc2c1` [PL11] the “reduction (non-significant)” value [4] was 35.6% and the “reduction in cell growth” value ([3]; 0.25 mM) was 87.5%.

With `CCCCCCCCCCCC(=O)Nc1ccc(O)cc1` [PL12, N-(4-hydroxyphenyl)dodecanamide] the melting point was 128 °C.

For `CCCCCCCCCCCCCCCC(=O)Nc1ccc(O)cc1` [PL16, N-(4-Hydroxyphenyl)hexadecanamide], the melting point was 131 °C.
